Source: patent US20160376263A1, “BITTER TASTE MODIFIERS INCLUDING SUBSTITUTED 1-BENZYL-3-(1-(ISOXAZOL-4-YLMETHYL)-1H-PYRAZOL-4-YL)IMIDAZOLIDINE-2,4-DIONES AND COMPOSITIONS THEREOF” (SENOMYX, INC., priority 2016, published 2016)
pIC50: −log10 of the molar value.

Experiments:
[1] = molecular target: T1, hT2R8 bitter receptor (Homo sapiens, UniProt Q9NYW2); assay: hT2R8 bitter receptor inhibition; assay type: cell-based; settings: read-out: IC50, inhibition of hT2R08 bitter receptor
T1 sequence (Q9NYW2 1-309): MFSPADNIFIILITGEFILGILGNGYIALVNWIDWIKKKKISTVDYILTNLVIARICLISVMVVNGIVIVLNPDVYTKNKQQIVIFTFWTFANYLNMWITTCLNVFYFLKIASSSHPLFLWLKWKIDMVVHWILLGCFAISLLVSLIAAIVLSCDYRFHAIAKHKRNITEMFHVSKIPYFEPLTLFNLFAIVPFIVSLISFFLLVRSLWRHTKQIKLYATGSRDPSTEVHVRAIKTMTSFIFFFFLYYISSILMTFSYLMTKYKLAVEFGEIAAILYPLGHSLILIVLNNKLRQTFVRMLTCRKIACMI

## Cc1noc(C)c1Cn1cc(N2C(=O)N(Cc3cc(O)cc(O)c3)C(C)(C)C2=O)cn1 [Example 105]
[1]
  pIC50: 8.00
other
  melting point: 213 to 215 °C
